Measurements: US7267815B2, “Methods and reagents for the enhancement of virus transduction in the bladder epithelium” (priority 2002, dated 2007)

Tested on: SD rat bladder epithelium
Test: Adenovirus dose titration with SDS or DDM pretreatment
Assay type: in vivo, Sprague Dawley Rat
Conditions: 0.1% pretreatment
Source text: All the animals had >90% in Ad-βgal gene expression in mice bladder. Adenovirus Dose Titration with Different Chemical Agents Pretreatment on SD Rat Bladder Epithelium • Species: Female Sprague Dawley Rat (Taconic Laboratory)—2/group • Study Design: To test the virus infectivity of rat bladder epithelium with different doses of Adenovirus following the pretreatment with SDS or DDM. This study also explored relationship between bladder volume and residual of SDS or DDM for adenovirus infectivity. • Dose/Route:
Rat bladders infected with 4×10^10 vp adenovirus achieved >90% Ad-βgal gene expression levels whereas rat bladders infected with 4×10^9 vp adenovirus had Ad-βgal gene expression levels range from 30% to 50%. […] Efficacy of Dodecyl-β-D-Maltoside as a Pretreatment Agent Prior to Adenovirus Infection of Mice Bladder Urothelium • Species: Female Balb/c Mouse (Taconic Laboratory)—2/group • Study Design: To test DDM from two different suppliers as pretreatment agents to enhance the adenovirus infection of mice bladder urothelium in a large group of animals. • Dose/Route: […]

CCCCCCCCCCCCO[C@@H]1O[C@H](CO)[C@@H](O[C@H]2O[C@H](CO)[C@@H](O)[C@H](O)[C@H]2O)[C@H](O)[C@H]1O [n-dodecyl β-D-maltoside, n-dodecyl-β-D-maltoside]
removal of GAG layer of bladder epithelium: effective to remove GAG layer of bladder epithelium
